Assay results taken from paper PMC8632500, “Identification of Conserved and Divergent Strigolactone Receptors in Sugarcane Reveals a Key Residue Crucial for Plant Branching Control” (Frontiers in Plant Science, 2021).
Numbering of substitutions follows the chain as printed.

Experiments:
Assay in all cases: yeast two-hybrid, hormone-induced D14-MAX2 interaction
Assay type in all cases: cell-based
AtD14 (with SsMAX2) [1] = molecular target: T1, AtD14 (with SsMAX2) (Arabidopsis thaliana, UniProt Q9SQR3); settings: 5 uM rac-GR24 versus DMSO; 30 °C, 4 days; partner SsMAX2
T1 construct: gene D14; GAL4-BD fusion, with Saccharum spontaneum MAX2 as GAL4-AD fusion, yeast AH109; with F-box protein MAX2 homolog (D3), Saccharum spontaneum
T1 sequence (Q9SQR3 1-267): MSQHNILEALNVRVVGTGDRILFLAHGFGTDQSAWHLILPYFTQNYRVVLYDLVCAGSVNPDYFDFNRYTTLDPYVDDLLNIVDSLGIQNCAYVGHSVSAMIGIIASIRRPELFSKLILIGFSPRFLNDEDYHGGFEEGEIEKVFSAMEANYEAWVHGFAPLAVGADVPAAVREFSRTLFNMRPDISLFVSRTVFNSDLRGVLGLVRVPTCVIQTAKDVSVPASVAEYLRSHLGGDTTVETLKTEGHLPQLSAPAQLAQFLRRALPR

AtD14 (with SsMAX2) [2] = molecular target: T2, AtD14 (with SsMAX2) (Arabidopsis thaliana, UniProt Q9SQR3, R262P); settings: 5 uM rac-GR24 versus DMSO; 30 °C, 4 days; partner SsMAX2
T2 construct: gene D14; GAL4-BD fusion, with Saccharum spontaneum MAX2 as GAL4-AD fusion, yeast AH109; with F-box protein MAX2 homolog (D3), Saccharum spontaneum
T2 sequence (Q9SQR3 1-267 R262P): T1 sequence (Q9SQR3 1-267) with R262P

SsD14a (with SsMAX2) = molecular target: T3, SsD14a (with SsMAX2) (Saccharum spontaneum, UniProt Z9T3V1O2D3); settings: 5 uM rac-GR24 versus DMSO; 30 °C, 4 days; partner SsMAX2
T3 construct: full-length CDS as GAL4-BD fusion (pGBKT7), SsMAX2 as GAL4-AD fusion (pGADT7), yeast AH109; 7F5W is apo SsD14a lacking residues 1-49; with F-box protein MAX2 homolog (D3)
T3 sequence (Z9T3V1O2D3 1-316): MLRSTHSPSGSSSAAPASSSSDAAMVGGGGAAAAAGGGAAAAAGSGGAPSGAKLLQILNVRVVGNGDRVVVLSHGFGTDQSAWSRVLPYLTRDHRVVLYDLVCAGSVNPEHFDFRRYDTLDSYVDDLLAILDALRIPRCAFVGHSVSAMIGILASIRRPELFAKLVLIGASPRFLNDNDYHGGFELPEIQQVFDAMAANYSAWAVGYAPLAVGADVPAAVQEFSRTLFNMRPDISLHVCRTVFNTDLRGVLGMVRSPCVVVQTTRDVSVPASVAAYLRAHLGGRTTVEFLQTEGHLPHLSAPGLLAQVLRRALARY

OsD14ΔN (with SsMAX2) [3] = molecular target: T4, OsD14ΔN (with SsMAX2) (Oryza sativa, UniProt Q10QA5, R312P); settings: 5 uM rac-GR24 versus DMSO; 30 °C, 4 days; partner SsMAX2; R312P in full-length count
T4 construct: gene D14; N-terminally truncated (printed OsD14ΔN53; R261/R312 offset implies 51 residues removed), GAL4-BD fusion, with Saccharum spontaneum MAX2 as GAL4-AD fusion, yeast AH109; with F-box protein MAX2 homolog (D3), Saccharum spontaneum
T4 sequence (Q10QA5 54-318 R312P): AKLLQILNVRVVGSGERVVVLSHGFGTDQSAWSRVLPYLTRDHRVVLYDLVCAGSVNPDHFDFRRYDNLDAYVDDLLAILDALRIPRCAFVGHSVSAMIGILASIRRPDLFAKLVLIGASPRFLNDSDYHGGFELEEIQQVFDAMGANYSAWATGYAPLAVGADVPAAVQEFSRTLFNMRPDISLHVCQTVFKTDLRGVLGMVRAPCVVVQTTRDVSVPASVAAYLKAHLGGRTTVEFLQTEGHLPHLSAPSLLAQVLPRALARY

SsD14b (with SsMAX2) = molecular target: T5, SsD14b (with SsMAX2) (Saccharum spontaneum, UniProt Z9BCY6HYO0); settings: 5 uM rac-GR24 versus DMSO; 30 °C, 4 days; partner SsMAX2
T5 construct: full-length CDS as GAL4-BD fusion (pGBKT7), SsMAX2 as GAL4-AD fusion (pGADT7), yeast AH109; with F-box protein MAX2 homolog (D3)
T5 sequence (Z9BCY6HYO0 1-310): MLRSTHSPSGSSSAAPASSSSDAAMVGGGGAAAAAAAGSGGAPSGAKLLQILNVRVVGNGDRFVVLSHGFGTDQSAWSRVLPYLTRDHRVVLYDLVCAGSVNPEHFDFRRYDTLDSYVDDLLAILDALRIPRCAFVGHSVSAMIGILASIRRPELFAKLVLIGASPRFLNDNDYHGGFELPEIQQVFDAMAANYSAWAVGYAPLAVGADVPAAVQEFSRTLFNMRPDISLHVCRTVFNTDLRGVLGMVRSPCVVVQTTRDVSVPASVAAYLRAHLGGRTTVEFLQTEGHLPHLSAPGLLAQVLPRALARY

OsD14ΔN (with SsMAX2) [4] = molecular target: T6, OsD14ΔN (with SsMAX2) (Oryza sativa, UniProt Q10QA5); settings: 5 uM rac-GR24 versus DMSO; 30 °C, 4 days; partner SsMAX2
T6 construct: gene D14; N-terminally truncated (printed OsD14ΔN53; R261/R312 offset implies 51 residues removed), GAL4-BD fusion, with Saccharum spontaneum MAX2 as GAL4-AD fusion, yeast AH109; with F-box protein MAX2 homolog (D3), Saccharum spontaneum
T6 sequence (Q10QA5 54-318): T4 sequence (Q10QA5 54-318 R312P) with P259R

**Q.** Which results are given for `CC1=CC(OC=C2C(=O)OC3c4ccccc4CC23)OC1=O` (racemic) [rac-GR24]?
**A.** yeast two-hybrid, hormone-induced D14-MAX2 interaction (AtD14 (with SsMAX2) [1]): SsMAX2 interacted with AtD14 in an SL-dependent manner; yeast two-hybrid, hormone-induced D14-MAX2 interaction (AtD14 (with SsMAX2) [2]): AtD14R262P and OsD14ΔNR261P, like wild-type proteins, still have strong hormone-dependent interactions with SsMAX2; yeast two-hybrid, hormone-induced D14-MAX2 interaction (SsD14a (with SsMAX2)): SL induced both SsD14a and SsD14b to interact with SsMAX2 in yeast; yeast two-hybrid, hormone-induced D14-MAX2 interaction (OsD14ΔN (with SsMAX2) [3]): AtD14R262P and OsD14ΔNR261P, like wild-type proteins, still have strong hormone-dependent interactions with SsMAX2; yeast two-hybrid, hormone-induced D14-MAX2 interaction (SsD14b (with SsMAX2)): SL induced both SsD14a and SsD14b to interact with SsMAX2 in yeast; yeast two-hybrid, hormone-induced D14-MAX2 interaction (OsD14ΔN (with SsMAX2) [4]): like wild-type proteins, still have strong hormone-dependent interactions with SsMAX2
